The text below walks through data of patent US7285687B2 (priority 2002, dated 2007).

In general, Ki refers to a measure of affinity in units of concentration, obtained from inhibition or displacement.

In the first test the target is T1, CB2 receptor (Homo sapiens, UniProt P34972).
T1 construct: expressed in transfected cells
T1 sequence (P34972 whole entry): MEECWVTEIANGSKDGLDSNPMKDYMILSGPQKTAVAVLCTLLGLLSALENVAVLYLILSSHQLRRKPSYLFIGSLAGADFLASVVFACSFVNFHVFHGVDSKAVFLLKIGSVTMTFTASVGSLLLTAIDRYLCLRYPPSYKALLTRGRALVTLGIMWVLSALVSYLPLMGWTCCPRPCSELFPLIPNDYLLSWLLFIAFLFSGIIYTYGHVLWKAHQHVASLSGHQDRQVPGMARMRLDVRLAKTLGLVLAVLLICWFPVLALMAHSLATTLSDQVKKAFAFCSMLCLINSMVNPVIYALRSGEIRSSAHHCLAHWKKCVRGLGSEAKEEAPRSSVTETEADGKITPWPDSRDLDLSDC
In words: CB2 binding procedure, displacement of [3H]CP-55,940 from membranes of transfected CHO cells. Conditions: Table 6; read-out: CB2 KI. How it is done: Membranes for CB2 binding were obtained from CHO cells. The transfected cell line was maintained in Dublecco's Modified Eagle Medium (Gibco BRL, Grand Island, N.Y.) with 10% fetal clone II (HyClone Laboratories, Inc., Logan, Utah) plus 0.3 to 0.5 mg/ml G418 (to maintain selective pressure) under 5% CO2 at 37% C. Cells were harvested with 1 mM EDTA in phosphate-buffered saline and were centrifuged at 1000×g for 5 min at 4% C. The supernatant was saved and the P1 pellet was resuspended in centrifugation buffer. Homogenization and centrifugation were repeated twice and the combined supernatant fractions were centrifuged at 40,000×g for 30 min at 4% C. The P2 pellet was resuspended in centrifugation buffer 2 (Tris HCl, 50 mM; EDTA, 1 mM; and MgCl2, 3 mM, pH 7.4) to a protein concentration of approximately 2 mg/ml. Protein concentrations were determined by the method of Bradford (1976) using Bio-Rad Protein Assay (Bio-Rad, Richmond, Calif.) and BSA standards (fatty acid free, Sigma Chemical Co., St. Louis, Mo.). The membrane preparation was divided into amounts convenient for binding assays and frozen rapidly in dry ice and stored at −80% C.
Binding was initiated by the addition of 50•g of quickly thawed P2 membranes to test tubes containing [^3H]CP-55,940 (final reaction concentration 0.5 nM), an appropriate concentration of unlabeled CP-55,940 or test drug, and sufficient quantity of assay buffer (50 mM Tris-HCl, 1 mM EDTA, 3 mM MgCl2, 5 mg/ml bovine serum albumin, pH 7.4) to bring the total incubation volume to 0.5 ml. Concentration of [^3H]CP-55,940 in saturation studies ranged from 50 to 10,000 pM. […] CP-55,940 and all cannabinoid analogs were-prepared by suspension in assay buffer from a 1 mg/ml ethanolic stock without evaporation of the ethanol (final concentration of no more than 0.4%). In competition studies, analog concentrations ranged from 0.1 nM to 10•M. After incubation at […] for 1 hr, binding was terminated by the addition of 2 ml of ice-cold wash buffer (50 mM Tris-HCl and 1 mg/ml BSA) and vacuum filtration through pre-treated filters in a 12-well sampling manifold (Millipore, Bedford, Mass.). Reaction vessels were washed once with 2 ml of ice-cold wash buffer. Filters were placed into 7-ml plastic scintillation vials (RPI Corp., Mount Prospect, Ill.) with 4 ml of Budget-Solve (RPI Corp.). After shaking for 30 min, the radioactivity present was determined by liquid scintillation spectrometry. Three reaction vessels were used for each drug concentration in each assay. The results represent the combined data of three independent experiments. All assays were performed in siliconized test tubes, which were prepared by air drying (12 hr) inverted borosilicate tubes after two rinses with a 0.1% solution of AquaSil (Pierce, Rockford, Ill.). The GF/C glass-fiber filters (2.4 cm, Baxter, McGaw Park, Ill.) were pre-treated in a 0.1% solution of pH 7.4 polyethylenimine (Sigma Chemical Co.) for at least 6 hr.
In addition, multiple linear regression was used to calculate the overall degree of relationship between CB1 binding affinity and potency in the mouse measures for all active cannabinoids. […] Ki values for CB1 and CB2 binding were obtained from Scatchard displacement analysis as determined via EBDA program of the KELL software package (Biosoft, Milltown, N.J.).
(Displacement assays read how much labelled ligand stays bound in the presence of the test substance.)
For the molecule `CCCCCCC(C)(C)c1cc(O)c(C2CCCC(C)C2)c(O)c1` (single isomer, unassigned; isomer a) [O-1797A, 2-(3-Methylcyclohexyl)-5-(1′,1′-dimethylheptyl-resorcinol isomer A], the Ki worked out at 0.44 ± 0.03 nM.

Staying with this test, now noted: ratio of CB1 Ki to CB2 Ki.
For the molecule `CCCCCCC(C)(C)c1cc(OC)c(C23CCC(O)CC2O3)c(OC)c1` (stereo not shown) [O-2122, 6-[4-(1,1-Dimethyl-heptyl)-2,6-dimethoxy-phenyl]-7-oxa-bicyclo[4 1 0]heptan-3-ol], the CB1/CB2 turned out to be 4.

Take `CCCCCCC(C)(C)c1cc(OC)c(C2(O)CCC(O)CC2)c(OC)c1` (single isomer, unassigned) [O-2116A, 1-[4-(1,1-Dimethyl-heptyl)-2,6-dimethoxy-phenyl]-cyclohexane-1,4-olol (A)]: the CB1/CB2 was 21.

With `CCCCCCC(C)(C)c1cc(O)c(C2CCC(C)CC2)c(O)c1` (stereo not shown) [O-1659, 2-(4-Methylcyclohexyl)-5-(1′,1′-dimethylheptyl)-resorcinol], the CB1/CB2 came out at 9.

Regarding `CCCCCCC(C)(C)c1cc(OC)c(C2(O)CCCCCC2)c(OC)c1` [O-2091, 1-[4-(1,1-Dimethylheptyl)-2,6-dimephenyl]-cycloheptan-1-ol], the CB1/CB2 was found to be 50.

`CCCCCCC(C)(C)c1cc(O)c(C2=CCCCC2)c(O)c1` [O-1423]: the CB1/CB2 is 3.

As to `CCCCCCC(C)(C)c1cc(O)c(C2CCC(c3ccccc3)CC2)c(O)c1` (stereo not shown) [O-1663, 2-(4-Phenylcyclohexyl)-5-(1′,1′-dimethylheptyl)-resorcinol], the CB1/CB2 turned out to be 16.

Take `CCCCCCC(C)(C)c1cc(OC)c(C2(O)CCCCC2)c(OC)c1` [O-2072, 1-[4-(1,1-Dimethylheptyl)-2,6-dimethoxyphenyl]-cyclohexanol]: the CB1/CB2 was found to be 55.

For the molecule `CCCCCCC(C)(C)c1ccc(-c2cc(CO)ccc2C(C)C)c(O)c1` [O-1601, 3-1′,1′-Dimethylhepyl-6-(2-isopropyl-5-hydroxy-methylphenyl)-phenol], the CB1/CB2 is listed as 2.

In the case of `CCCCCCC(C)(C)c1cc(OC)c(C2(O)CCC3(CC2)OCCO3)c(OC)c1` [O-2092, 8-[4-(1,1-Dimethylheptyl)-2,6-dimephenyl]-1,4-dioxaspiro[4,5]decan-], the CB1/CB2 was determined as 36.

For the molecule `CCCCCCC(C)(C)c1cc(O)c([C@H]2CCCC(C)C2)c(O)c1` (stereo in doubt) [O-1826, 2-(3R-Methylcyclohexyl)-5-(1′,1′-dimethylheptyl)-resorcinol], the CB1/CB2 is 50.

Take `CCCCCCC(C)(C)c1cc(OCC)c(C2(O)CCCC(C)C2)c(OCC)c1` (stereo not shown) [O-2090, 1-[4-(1,1-Dimethylheptyl)-2,6-dietlphenyl]-3-methyl cyclohexane-1-ol]: the CB1/CB2 was 10.

Consider `CCCCCCC(C)(C)c1cc(OC)c(C2=CCC(=O)CC2)c(OC)c1` [O-2114, 4-[4-(1,1-Dimethyl-heptyl)-2,6-dimethoxy-phenyl]-cyclohex-3-enone], for which the CB1/CB2 came to 5.

For `CCCCCCC(C)(C)c1cc(O)c(C2CCCC(C)C2)c(O)c1` (mixture of isomers) [O-1657, 2-(3-Methylcyclohexyl)-5-(1′,1′-dimethylheptyl)-resorcinol], the CB1/CB2 came out at 17.

In the case of `CCCCCCC(C)(C)c1cc(OC)c(C2(O)CCCC(C)(C)C2)c(OC)c1` (stereo not shown) [O-2068, 1-[4-(1,1-Dimethylheptyl)-2,6-dimethoxyphenyl]3,3-dimethyl-cyclohexanol], the CB1/CB2 is reported as 47.

`CCCCCCC(C)(C)c1cc(O)c(C2CCCCC2)c(O)c1` [O-1422, Cyclohexyl-5-(1′,1′-dimethylheptyl)-resorcinol]: the CB1/CB2 is 7.

As for `CCCC(C)(C)c1ccc(-c2cc(C)ccc2C(C)C)c(O)c1` [O-1532, 3-1′,1′-Dimethylbutyl-6-(2-isopropyl-5-methyl-phenyl)-phenol], the CB1/CB2 was determined as 8.

Regarding `CCCCCCC(C)(C)c1cc(O)c(C2CCCC(C)C2)c(O)c1` (single isomer, unassigned; isomer a) [O-1797A, 2-(3-Methylcyclohexyl)-5-(1′,1′-dimethylheptyl-resorcinol isomer A], the CB1/CB2 is given as 12.

For `CCCCCCC(C)(C)c1cc(O)c(C2CCCCC2C)c(O)c1` (stereo not shown) [O-1658, 2-(2-Methylcyclohexyl)-5-(1′,1′-dimethylheptyl)-resorcinol], the CB1/CB2 is listed as 16.
